EC50 data for 33 molecules are collected here from patent US20250333424A1, “ANTIVIRAL COMPOUNDS” (Gilead Sciences, Inc., priority 2024, published 2025).

The structures appear in SMILES notation.

This test concerns monocytic THP1 cells infected with HIV VSV-G pseudotyped GFP-NEF reporter virus. The test is described as follows: cells. The conditions noted are these: Human immunodeficiency virus 1, THP-1, 24 h. Type of test: cell-based.

Consider `Cc1cc(/C=C/C#N)cc(C)c1Oc1nc(NC23CC(C#N)(C2)C3)nc2c1[C@H]1OC[C@H](F)CN1C2=O` (single isomer, unassigned) [Compound 281], for which the EC50 (usually the concentration needed to bring the measured effect to its halfway point) came out at 74.2 nM. For `Cc1cc(/C=C/C#N)cc(C)c1Oc1nc(NC23CC(C#N)(C2)C3)nc2c1[C@@H]1OC[C@H](F)CN1C2=O` (single isomer, unassigned) [Compound 282] the value was 50.1 nM. Then `Cc1cc(/C=C/C#N)cc(C)c1Oc1nc(NC23CC(C#N)(C2)C3)nc2c1[C@@]1(C)O[C@@H]3CC[C@@H]3N1C2=O` (single isomer, unassigned) [Compound 283], with 44.8 nM; and `Cc1cc(/C=C/C#N)cc(C)c1Oc1nc(NC23CC(C#N)(C2)C3)nc2c1[C@]1(C)O[C@@H]3CC[C@@H]3N1C2=O` (single isomer, unassigned) [Compound 284], with 34.9 nM.

Molecule `CO[C@H]1COC2(C)c3c(Oc4c(C)cc(/C=C/C#N)cc4C)nc(NC45CC(C#N)(C4)C5)nc3C(=O)N2C1` (single isomer, unassigned) [Example 235] displayed an EC50 of 22.8 nM. For the molecule `Cc1cc(/C=C/C#N)cc(C)c1Oc1nc(NC23CC(C#N)(C2)C3)nc2c1C1(C)O[C@H](C)CCN1C2=O` (single isomer, unassigned) [Example 242], the EC50 worked out at 36.4 nM.

As for `Cc1cc(/C=C/C#N)cc(C)c1Oc1nc(NC23CC(C#N)(C2)C3)nc2c1C1(C)OC[C@@H](C)CN1C2=O` (single isomer, unassigned) [Example 243], the EC50 was 219 nM.

In turn, `CO[C@@H]1COC2(C)c3c(Oc4c(C)cc(/C=C/C#N)cc4C)nc(NC45CC(C#N)(C4)C5)nc3C(=O)N2C1` (single isomer, unassigned) [Example 244] had an EC50 of 111 nM. Then `Cc1cc(/C=C/C#N)cc(C)c1Oc1nc(NC23CC(C#N)(C2)C3)nc2c1C1(C)OC[C@H](C)CN1C2=O` (single isomer, unassigned) [Example 245], with 22.3 nM; and `Cc1cc(/C=C/C#N)cc(C)c1Oc1nc(NC23CC(C#N)(C2)C3)nc2c1[C@]1(C)O[C@@H](C)CN1C2=O` (single isomer, unassigned) [Example 248], with 121 nM. Molecule `Cc1cc(/C=C/C#N)cc(C)c1Oc1nc(NC23CC(C#N)(C2)C3)nc2c1[C@@]1(C)O[C@@H](C)CN1C2=O` (single isomer, unassigned) [Example 249] returned a half-maximal effective concentration (EC50) of 75.7 nM. For `Cc1cc(/C=C/C#N)cc(C)c1Oc1nc(NC23CC(C#N)(C2)C3)nc2c1C1(C)O[C@H](C)CN1C2=O` (single isomer, unassigned) [Example 251] the value was 73.2 nM; for `CO[C@H]1COC2c3c(Oc4c(C)cc(/C=C/C#N)cc4C)nc(NC45CC(C#N)(C4)C5)nc3C(=O)N2C1` (single isomer, unassigned) [Example 252], 77.1 nM. The molecule `CCOc1cc(/C=C/C#N)cc(Cl)c1Oc1nc(NC23CC(C#N)(C2)C3)nc2[nH]nc(C)c12` [Compound 3, (E)-3-((4-(2-chloro-4-(2-cyanovinyl)-6-ethoxyphenoxy)-3-methyl-11H-pyrazolo[3,4-d]pyrimidin-6-yl)amino)bicyclo[1.1.1]pentane-1-carbonitrile] displayed a 50% effective concentration (EC50) of 29.6 nM.

The molecule `Cc1cc(/C=C/C#N)c(C(F)(F)F)c(C)c1Oc1nc(NC23CC(C#N)(C2)C3)nc2nn(C)cc12` [Compound 4, (E)-3-((4-(4-(2-cyanovinyl)-2,6-dimethyl-3-(trifluoromethyl)phenoxy)-2-methyl-2H-pyrazolo[3,4-d]pyrimidin-6-yl)amino)bicyclo[1.1.1]pentane-1-carbonitrile] came in with a half-maximal effective concentration (EC50) of 1490 nM. For `Cn1cc2c(Oc3c(F)cc(/C=C/C#N)cc3Cl)nc(NC34CC(C#N)(C3)C4)nc2n1` [Compound 5, (E)-3-((4-(2-chloro-4-(2-cyanovinyl)-6-fluorophenoxy)-2-methyl-2H-pyrazolo[3,4-d]pyrimidin-6-yl)amino)bicyclo[1.1.1]pentane-1-carbonitrile] the value was 26.1 nM; for `Cc1cc(/C=C/C#N)cc(Cl)c1Oc1nc(NC23CC(C#N)(C2)C3)nc2nn(C)cc12` [Compound 6, (E)-3-((4-(2-chloro-4-(2-cyanovinyl)-6-methylphenoxy)-2-methyl-2H-pyrazolo[3,4-d]pyrimidin-6-yl)amino)bicyclo[1.1.1]pentane-1-carbonitrile], 17.4 nM.

On to `CCc1cc(/C=C/C#N)cc(Cl)c1Oc1nc(NC23CC(C#N)(C2)C3)nc2nn(C)cc12` [Compound 7, (E)-3-((4-(2-chloro-4-(2-cyanovinyl)-6-ethylphenoxy)-2-methyl-2H-pyrazolo[3,4-d]pyrimidin-6-yl)amino)bicyclo[1.1.1]pentane-1-carbonitrile], for which the EC50 is 21.4 nM. For `Cc1cc(/C=C/C#N)c(C)c(C)c1Oc1nc(NC23CC(C#N)(C2)C3)nc2nn(C)cc12` [Compound 8, (E)-3-((4-(4-(2-cyanovinyl)-2,3,6-trimethylphenoxy)-2-methyl-2H-pyrazolo[3,4-d]pyrimidin-6-yl)amino)bicyclo[1.1.1]pentane-1-carbonitrile] the value was 44.6 nM.

For `Cc1cc(/C=C/C#N)cc(C)c1Oc1nc(NC23CC(C#N)(C2)C3)nc2ncn(C(F)F)c12` [Compound 12, (E)-3-((6-(4-(2-cyanovinyl)-2,6-dimethylphenoxy)-7-(difluoromethyl)-7H-purin-2-yl)amino)bicyclo[1.1.1]pentane-1-carbonitrile], the EC50 came out at 5.68 nM. For `Cc1cc(/C=C/C#N)cc(C)c1Oc1nc(NC23CC(C#N)(C2)C3)nc2nc(C)n(C(F)F)c12` [Compound 13, (E)-3-((6-(4-(2-cyanovinyl)-2,6-dimethylphenoxy)-7-(difluoromethyl)-8-methyl-7H-purin-2-yl)amino)bicyclo[1.1.1]pentane-1-carbonitrile] the value was 11.7 nM; for `Cc1cc(/C=C/C#N)cc(C)c1Oc1nc(NC23CC(C#N)(C2)C3)nc2c1nc(C)n2C(F)F` [Compound 15, (E)-3-((6-(4-(2-cyanovinyl)-2,6-dimethylphenoxy)-9-(difluoromethyl)-8-methyl-9H-purin-2-yl)amino)bicyclo[1.1.1]pentane-1-carbonitrile], 109 nM; for `CCc1nc2nc(NC34CC(C#N)(C3)C4)nc(Oc3c(C)cc(/C=C/C#N)cc3C)c2n1C(F)F` [Compound 17, (E)-3-((6-(4-(2-cyanovinyl)-2,6-dimethylphenoxy)-7-(difluoromethyl)-8-ethyl-7H-purin-2-yl)amino)bicyclo[1.1.1]pentane-1-carbonitrile], 21.4 nM. `Cc1cc(/C=C/C#N)cc(C)c1Oc1nc(NC23CC(C#N)(C2)C3)nc2[nH]c(=O)n(C)c12` [Compound 24, (E)-3-((6-(4-(2-cyanovinyl)-2,6-dimethylphenoxy)-7-methyl-8-oxo-8,9-dihydro-7H-purin-2-yl)amino)bicyclo[1.1.1]pentane-1-carbonitrile] had an EC50 of 32 nM. Then `Cc1cc(/C=C/C#N)cc(C)c1Oc1nc(NC23CC(C#N)(C2)C3)nc2nc(C(F)F)n(C)c12` [Compound 25, (E)-3-((6-(4-(2-cyanovinyl)-2,6-dimethylphenoxy)-8-(difluoromethyl)-7-methyl-7H-purin-2-yl)amino)bicyclo[1.1.1]pentane-1-carbonitrile], with 37.2 nM; and `Cc1cc(/C=C/C#N)cc(C)c1Oc1nc(NC23CC(C#N)(C2)C3)nc2nc(C(F)F)[nH]c12` [Compound 26, (E)-3-((6-(4-(2-cyanovinyl)-2,6-dimethylphenoxy)-8-(difluoromethyl)-7H-purin-2-yl)amino)bicyclo[1.1.1]pentane-1-carbonitrile], with 347 nM. Then `Cc1cc(/C=C/C#N)cc(C)c1Oc1nc(NC23CC(C#N)(C2)C3)nc2c1n(C(F)F)c(=O)n2C(F)F` [Compound 28, (E)-3-((6-(4-(2-cyanovinyl)-2,6-dimethylphenoxy)-7,9-bis(difluoromethyl)-8-oxo-8,9-dihydro-7H-purin-2-yl)amino)bicyclo[1.1.1]pentane-1-carbonitrile], with 44 nM; and `Cc1cc(/C=C/C#N)cc(C)c1Oc1nc(NC23CC(C#N)(C2)C3)nc2c1ncn2CC1(C#N)CC1` [Compound 45, (E)-3-((9-((1-cyanocyclopropyl)methyl)-6-(4-(2-cyanovinyl)-2,6-dimethylphenoxy)-9H-purin-2-yl)amino)bicyclo[1.1.1]pentane-1-carbonitrile], with 53 nM. On to `COCCNc1nc2nc(NC34CC(C#N)(C3)C4)nc(Oc3c(C)cc(/C=C/C#N)cc3C)c2[nH]1` [Compound 46, (E)-3-((6-(4-(2-cyanovinyl)-2,6-dimethylphenoxy)-8-((2-methoxyethyl)amino)-7H-purin-2-yl)amino)bicyclo[1.1.1]pentane-1-carbonitrile], for which the EC50 came to 88.6 nM. For `CCNc1nc2nc(NC34CC(C#N)(C3)C4)nc(Oc3c(C)cc(/C=C/C#N)cc3C)c2[nH]1` [Compound 47, (E)-3-((6-(4-(2-cyanovinyl)-2,6-dimethylphenoxy)-8-(ethylamino)-7H-purin-2-yl)amino)bicyclo[1.1.1]pentane-1-carbonitrile] the value was 118 nM; for `Cc1cc(/C=C/C#N)cc(C)c1Oc1nc(NC23CC(C#N)(C2)C3)nc2nc(Nc3ccn(C)n3)[nH]c12` [Compound 48, (E)-3-((6-(4-(2-cyanovinyl)-2,6-dimethylphenoxy)-8-((1-methyl-1H-pyrazol-3-yl)amino)-7H-purin-2-yl)amino)bicyclo[1.1.1]pentane-1-carbonitrile], 151 nM. For `Cc1cc(/C=C/C#N)cc(C)c1Oc1nc(NC23CC(C#N)(C2)C3)nc2nc(C3CCCCC3)[nH]c12` [Compound 51, (E)-3-((6-(4-(2-cyanovinyl)-2,6-dimethylphenoxy)-8-cyclohexyl-7H-purin-2-yl)amino)bicyclo[1.1.1]pentane-1-carbonitrile] the value was 374 nM; for `Cc1cc(/C=C/C#N)cc(C)c1Oc1nc(NC23CC(C#N)(C2)C3)nc2nc(C3CCOCC3)[nH]c12` [Compound 52, (E)-3-((6-(4-(2-cyanovinyl)-2,6-dimethylphenoxy)-8-(tetrahydro-2H-pyran-4-yl)-7H-purin-2-yl)amino)bicyclo[1.1.1]pentane-1-carbonitrile], 137 nM.
